Experimental data reported in patent US20240025922A1, “TETRAHYDROPYRIDO[3,4-d]PYRIMIDINES AS HPK1 INHIBITORS” (Merck Patent GmbH, priority 2022, published 2024).
Read-outs that look alike come from different tables or passages of the source.

Key:
[1] = biological target: full-length human HPK1 (MAP4K1) (Homo sapiens (Human), UniProt Q92918); assay: HPK1 Kinase Assay (Biochemical Assay), ADP-Glo; settings: GST-HPK1 3.2 nM, 10 μM ATP, MBP substrate, read-out: HPK1 enzymatic IC50
In short: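 GST-tagged full-length human HPK1 was expressed in Sf21 cells and used at 3.2 nM in 50 mM HEPES pH 7.5, 10 mM MgCl2, 2 mM DTT, 12.5 mM O-glycerophosphate, 0.01% BSA and 0.02% Brij-35. It was preincubated 15 min with 10-point compound dilutions, and the reaction was started with a start mix of 10 μM ATP and 3.235 μM MBP. After 120 min, ADP was measured by ADP-Glo luminescence and IC50 derived.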

[2] = biological target: HPK1 (SLP76 phosphorylation at Ser376 in Jurkat and EL-4 cells) (Homo sapiens, UniProt Q92918); type: cell-based
HPK1 (SLP76 phosphorylation at Ser376 in Jurkat and EL-4 cells), sequence (Q92918 whole entry, looked up): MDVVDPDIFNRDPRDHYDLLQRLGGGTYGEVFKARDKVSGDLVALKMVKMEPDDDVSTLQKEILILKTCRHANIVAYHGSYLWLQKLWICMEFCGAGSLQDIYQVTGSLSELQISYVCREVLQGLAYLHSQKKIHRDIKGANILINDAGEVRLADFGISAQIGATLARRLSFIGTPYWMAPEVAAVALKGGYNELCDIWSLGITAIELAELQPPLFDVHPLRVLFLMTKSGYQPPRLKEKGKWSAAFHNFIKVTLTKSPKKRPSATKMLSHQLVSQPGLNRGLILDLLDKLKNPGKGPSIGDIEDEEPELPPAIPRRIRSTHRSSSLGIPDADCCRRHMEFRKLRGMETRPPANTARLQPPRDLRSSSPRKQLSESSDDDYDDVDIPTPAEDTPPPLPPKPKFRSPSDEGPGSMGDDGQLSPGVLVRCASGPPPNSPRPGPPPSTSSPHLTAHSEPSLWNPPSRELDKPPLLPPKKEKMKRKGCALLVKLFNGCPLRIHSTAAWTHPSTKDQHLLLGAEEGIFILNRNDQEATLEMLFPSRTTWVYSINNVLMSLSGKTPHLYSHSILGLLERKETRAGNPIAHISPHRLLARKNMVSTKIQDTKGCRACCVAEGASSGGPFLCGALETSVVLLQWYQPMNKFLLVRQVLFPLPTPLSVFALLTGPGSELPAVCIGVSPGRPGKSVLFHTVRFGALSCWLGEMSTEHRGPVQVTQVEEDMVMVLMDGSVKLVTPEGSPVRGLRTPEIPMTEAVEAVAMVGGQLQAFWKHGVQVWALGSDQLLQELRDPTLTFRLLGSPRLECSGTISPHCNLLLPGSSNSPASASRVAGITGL
Experimental: Cellular Assay—Phospho-SLP-76 (Ser376).
Inhibition of HPK1 enzymatic activity in cells was determined by detection of SLP76 phosphorylation at Ser376 residue in lysate from Jurkat (human) and EL-4 (mouse) cells. Jurkat and EL-4 cells express both HPK1 and SLP76 naturally. All cells were cultured in RPMI 1640 media containing 10% heat inactivated fetal bovine serum (FBS) and 1×Penicillin-Streptomycin. In either Jurkat or El-4 assay, cells were pre-incubated with test compounds prior to T cell stimulation by respective αCD3/αCD28 Dynabeads™. For detection, plates were read on the Envision and percent inhibition and IC50 were determined by Smart fit in Genedata Analyzer.
For Jurkat cells: 35 μL cell suspension were dispensed at a density of 30,000 cells/well in 384-well plates containing HBSS (Gibco, 14025076)+0.1% BSA). 10-point logarithmic serial dilution of test compounds in DMSO were prepared by a Hamilton automated liquid handling robot and 35 nL was transferred into each well by an Echo liquid handler. After 60 min. pre-incubation, the cells were stimulated by adding 5 μL human T activator αCD3/αCD28 Dynabeads™ (Gibco, 11132D) at 1.2×107 beads/mL for 15 minutes at 37° C. Detection of Ser376 phosphorylation status was accomplished by first adding 10 μL of 5×AlphaLISA lysis buffer (Perkin Elmer, ALSU-PSLP-A500) to each well of the cell plate using a Multidrop Combi (5840300), followed by 20 minutes shaking. 10 μL cell lysate from each treatment were then transferred to a white 384-well plate (Corning 3572) and incubated with AlphaLISA acceptor beads for one hour (AlphaLISA SureFire Ultra p-SLP76(Ser376), Perkin Elmer, ALSU-PSLP-A500), and donor beads for additional 2 hours at room temperature in the dark.
For EL-4.IL2 assay, 50 μL cell suspension at 2×10^6 cells/mL in HBSS were first dispensed into 384-well plates and then 50 nL serial dilutions of test compounds were spotted to each well by an Echo liquid handler. After 60 min. incubation at 37° C., cells were stimulated by adding 5 μL mouse T cell activator αCD3/αCD28 Dynabeads™ (ThermFisher Scientific, 11452D) for 30 minutes at 37° C. After a brief spin and subsequent supernatant discarded, 12.5 μL of Cisbio lysis buffer were added to each well and plates were shaken for 30 min at 450 RPM. For detection, 4 μL prepared HTRF antibody mixture (Cisbio, 63ADK000U) in detection buffer were mixed with 16 μl of cell lysate and plates were incubated at room temperature for 19 hours prior to EnVision reading.

[3] = αCD3/αCD28 Dynabeads stimulated cells, pSLP76 (Ser376) detection; read-out: HPK1 pSLP76 IC50

full-length human HPK1 (MAP4K1), sequence (Q92918 whole entry): as the sequence (Q92918 whole entry, looked up) above

| IC50 [1] | IC50 [2, 3] | SMILES | IC50 ([2]; read-out: HPK1 pSLP76 IC50; αCD3/αCD28 Dynabeads stimulated cells, pSLP76 (Ser376) detection) |
| --- | --- | --- | --- |
| < 100 nM | 500 to 1000 nM | Cc1cc(Nc2cc3c(cn2)CCN(c2cnc4c(c2Cl)NCCO4)C3)ccc1NC(=O)CN1CCOCC1 [Example 122, N-(4-((6-(8-chloro-2,3-dihydro-1H-pyrido[2,3-b][1,4]oxazin-7-yl)-5,6,7,8-tetrahydro-2,6-naphthyridin-3-yl)amino)-2-methylphenyl)-2-morpholinoacetamide] |  |
| < 100 nM | 500 to 1000 nM | Cc1c(N2CCc3cnc(Nc4ccc(C(C)(C)S(C)(=O)=O)cc4)nc3C2)cnc2c1NCCO2 [Example 186, N-[4-(2-methanesulfonylpropan-2-yl)phenyl]-7-{8-methyl-1H,2H,3H-pyrido[2,3-b][1,4]oxazin-7-yl}-5H,6H,7H,8H-pyrido[3,4-d]pyrimidin-2-amine] |  |
| < 100 nM | 500 to 1000 nM | CNC(=O)c1ccc(Nc2ncc3c(n2)CN(c2cnc4c(c2Cl)NCCO4)CC3)cc1C [Example 130, 4-[(7-{8-chloro-1H,2H,3H-pyrido[2,3-b][1,4]oxazin-7-yl}-5H,6H,7H,8H-pyrido[3,4-d]pyrimidin-2-yl)amino]-N,2-dimethylbenzamide] |  |
| < 100 nM | < 500 nM | Cc1c(N2CCc3cnc(Nc4cccc(C(C)(C)O)c4)nc3C2)cnc2c1NCCO2 [Example 82, 2-(3-((7-(8-methyl-2,3-dihydro-1H-pyrido[2,3-b][1,4]oxazin-7-yl)-5,6,7,8-tetrahydropyrido[3,4-d]pyrimidin-2-yl)amino)phenyl)propan-2-ol] |  |
| < 100 nM | 500 to 1000 nM | Cc1c(N2CCc3cnc(Nc4cnc5c(c4)CN(CC(F)F)CC5)nc3C2)cnc2c1NCCO2 [Example 105, N-(6-(2,2-difluoroethyl)-5,6,7,8-tetrahydro-1,6-naphthyridin-3-yl)-7-(8-methyl-2,3-dihydro-1H-pyrido[2,3-b][1,4]oxazin-7-yl)-5,6,7,8-tetrahydropyrido[3,4-d]pyrimidin-2-amine] |  |
| < 100 nM | < 500 nM | Cc1c(N2CCc3cnc(Nc4ccnc(N5CCOCC5)c4)nc3C2)cnc2c1NCCO2 [Example 77, 7-(8-methyl-2,3-dihydro-1H-pyrido[2,3-b][1,4]oxazin-7-yl)-N-(2-morpholinopyridin-4-yl)-5,6,7,8-tetrahydropyrido[3,4-d]pyrimidin-2-amine] |  |
| < 100 nM | 500 to 1000 nM | Cc1c(N2CCc3cnc(Nc4ccnc(CS(C)(=O)=O)c4)nc3C2)cnc2c1NCCO2 [Example 49, 7-(8-methyl-2,3-dihydro-1H-pyrido[2,3-b][1,4]oxazin-7-yl)-N-(2-((methylsulfonyl)methyl)pyridin-4-yl)-5,6,7,8-tetrahydropyrido[3,4-d]pyrimidin-2-amine] |  |
| < 100 nM | < 500 nM | CNC(=O)c1ccc(Nc2ncc3c(n2)CN(c2cnc4c(c2C)NCCO4)CC3)cc1F [Example 74, 2-fluoro-N-methyl-4-((7-(8-methyl-2,3-dihydro-1H-pyrido[2,3-b][1,4]oxazin-7-yl)-5,6,7,8-tetrahydropyrido[3,4-d]pyrimidin-2-yl)amino)benzamide] |  |
| < 100 nM | 500 to 1000 nM | Cc1cc(Nc2ncc3c(n2)CN(c2cnc4c(c2C)NCCO4)CC3)ccc1NCCN1CCOCC1 [Example 23, 2-methyl-N4-(7-{8-methyl-1H,2H,3H-pyrido[2,3-b][1,4]oxazin-7-yl}-5H,6H,7H,8H-pyrido[3,4-d]pyrimidin-2-yl)-N1-[2-(morpholin-4-yl)ethyl]benzene-1,4-diamine] |  |
| < 100 nM | < 500 nM | CS(=O)(=O)Cc1ccc(Nc2ncc3c(n2)CN(c2cnc4c(c2C2CC2)NCCO4)CC3)cc1 [Example 132, 7-{8-cyclopropyl-1H,2H,3H-pyrido[2,3-b][1,4]oxazin-7-yl}-N-[4-(methanesulfonylmethyl)phenyl]-5H,6H,7H,8H-pyrido[3,4-d]pyrimidin-2-amine] |  |
| < 100 nM | < 500 nM | Cc1c(N2CCc3cnc(Nc4cc5n(n4)CC(=O)N(C)CC5)cc3C2)cnc2c1NCCO2 [Example 68, 6-methyl-2-[(6-{8-methyl-1H,2H,3H-pyrido[2,3-b][1,4]oxazin-7-yl}-5,6,7,8-tetrahydro-2,6-naphthyridin-3-yl)amino]-4H,5H,6H,7H,8H-pyrazolo[1,5-d][1,4]diazepin-7-one] |  |
| < 100 nM | 500 to 1000 nM | Cc1cc(Nc2ncc3c(n2)CN(c2cnc4c(c2C)NCCO4)CC3)ccc1C(=O)NC1CN(C)C1 [Example 35, 2-methyl-4-[(7-{8-methyl-1H,2H,3H-pyrido[2,3-b][1,4]oxazin-7-yl}-5H,6H,7H,8H-pyrido[3,4-d]pyrimidin-2-yl)amino]-N-(1-methylazetidin-3-yl)benzamide] |  |
| < 100 nM | 500 to 1000 nM | Cc1c(N2CCc3cnc(Nc4ccc(C5CCN(C)CC5)cc4)nc3C2)cnc2c1NCCO2 [Example 100, 7-(8-methyl-2,3-dihydro-1H-pyrido[2,3-b][1,4]oxazin-7-yl)-N-(4-(1-methylpiperidin-4-yl)phenyl)-5,6,7,8-tetrahydropyrido[3,4-d]pyrimidin-2-amine] |  |
| < 100 nM | < 500 nM | Cc1c(N2CCc3cnc(Nc4ccc(CS(C)(=O)=O)cc4)nc3C2)cnc2c1NCCC2O (stereo not shown) [Example 143, 7-(2-{[4-(methanesulfonylmethyl)phenyl]amino}-5H,6H,7H,8H-pyrido[3,4-d]pyrimidin-7-yl)-8-methyl-1,2,3,4-tetrahydro-1,5-naphthyridin-4-ol] |  |
| < 100 nM | < 500 nM | COCCN1CCc2cc(Nc3cc4c(cn3)CCN(c3cnc5c(c3C)NCCO5)C4)nn2CC1=O [Example 153, 6-(2-methoxyethyl)-2-[(6-{8-methyl-1H,2H,3H-pyrido[2,3-b][1,4]oxazin-7-yl}-5,6,7,8-tetrahydro-2,6-naphthyridin-3-yl)amino]-4H,5H,6H,7H,8H-pyrazolo[1,5-d][1,4]diazepin-7-one] |  |
| < 100 nM | < 500 nM | Cc1c(N2Cc3nc(Nc4ccc(CS(C)(=O)=O)cc4)ncc3C(F)(F)C2)cnc2c1NCCO2 [Example 152, 5,5-difluoro-N-[4-(methanesulfonylmethyl)phenyl]-7-{8-methyl-1H,2H,3H-pyrido[2,3-b][1,4]oxazin-7-yl}-5H,6H,7H,8H-pyrido[3,4-d]pyrimidin-2-amine] |  |
| < 100 nM | < 500 nM | Cc1c(N2CCc3cnc(Nc4ccc(CC(=O)N5CC(C)(O)C5)cc4)nc3C2)cnc2c1NCCO2 [Example 173, 1-(3-hydroxy-3-methylazetidin-1-yl)-2-{4-[(7-{8-methyl-1H,2H,3H-pyrido[2,3-b][1,4]oxazin-7-yl}-5H,6H,7H,8H-pyrido[3,4-d]pyrimidin-2-yl)amino]phenyl}ethan-1-one] |  |
| < 100 nM | < 500 nM | COCCS(=O)(=O)Cc1ccc(Nc2ncc3c(n2)CN(c2cnc4c(c2C)NCCO4)CC3)cc1 [Example 135, N-{4-[(2-methoxyethanesulfonyl)methyl]phenyl}-7-{8-methyl-1H,2H,3H-pyrido[2,3-b][1,4]oxazin-7-yl}-5H,6H,7H,8H-pyrido[3,4-d]pyrimidin-2-amine] |  |
| < 100 nM | 500 to 1000 nM | CNCc1ccc(Nc2ncc3c(n2)CN(c2cnc4c(c2C)NCCO4)CC3)cc1 [Example 53, 7-(8-methyl-2,3-dihydro-1H-pyrido[2,3-b][1,4]oxazin-7-yl)-N-(4-((methylamino)methyl)phenyl)-5,6,7,8-tetrahydropyrido[3,4-d]pyrimidin-2-amine] |  |

| SMILES | IC50 [1] | IC50 [2, 3] | IC50 ([2]; read-out: HPK1 pSLP76 IC50; αCD3/αCD28 Dynabeads stimulated cells, pSLP76 (Ser376) detection) |
| --- | --- | --- | --- |
| Cc1c(N2CCc3cnc(Nc4ccc(N5CCC(O)CC5)nc4)nc3C2)cnc2c1NCCO2 [Example 102, 1-(5-((7-(8-methyl-2,3-dihydro-1H-pyrido[2,3-b][1,4]oxazin-7-yl)-5,6,7,8-tetrahydropyrido[3,4-d]pyrimidin-2-yl)amino)pyridin-2-yl)piperidin-4-ol] | < 100 nM |  | > 1000 nM |
